Data: PMC13112672, “The Drp1-CoQ10-Coa6-ETC axis represents a therapeutic potential for working memory impairment caused by neuronal mitochondrial dysfunction” (Translational Neurodegeneration, 2026)

Target: T1, Coa6 (cytochrome c oxidase assembly factor 6) (Mus musculus, UniProt Q8BGD8)
T1 construct: E. coli BL21(DE3); Ni-bead purification (vector His tag, removal not mentioned)
T1 sequence (Q8BGD8 1-79): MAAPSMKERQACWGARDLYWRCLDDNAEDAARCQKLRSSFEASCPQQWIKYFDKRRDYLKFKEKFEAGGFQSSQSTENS
Test: surface plasmon resonance (CM5 chip, immobilised Coa6)
Assay type: binding
Settings: analyte 0.39–25 μM CoQ10; protein amine-coupled, ~12,600 RU

Kd: 24 µM
SMILES: COC1=C(OC)C(=O)C(C/C=C(\C)CC/C=C(\C)CC/C=C(\C)CC/C=C(\C)CC/C=C(\C)CC/C=C(\C)CC/C=C(\C)CC/C=C(\C)CC/C=C(\C)CCC=C(C)C)=C(C)C1=O [CoQ10]
